Reference: the supplement of paper PMC11061612

Columns and labels:
[1] = test system: OCI-AML2 (Acute Myeloid Leukemia); experiment: combination Emax (second highest fraction inhibited in the dose matrix, 72 h); higher = more inhibition; extreme values may be limits of the assay
Method in brief: (§1)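 After 24 hours at 37°C and 5% CO2 in 1536-well plates, cells in DMEM/F12 or RPMI plus 10% FBS received two-drug dose matrices for 72 hours. Viability came from CellTiter-Glo 2.0 luminescence and was scaled as inhibition, anchored at 0 by vehicle wells and at 1 by blank wells. Combination Emax is taken as the second-highest inhibition in the matrix, and Bliss excess as the observed combination effect less EA + EB − EA·EB, with EA and EB the single-agent effects.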

[2] = test system: U-266 (Plasma Cell Myeloma); experiment: as above
Method in brief: as §1

[3] = test system: MDA-MB-157 (Breast Carcinoma); experiment: as above
Method in brief: as §1

[4] = test system: G-292-Clone-A141B1 (Osteosarcoma); experiment: as above
Method in brief: as §1

[5] = test system: LS-513 (Colorectal Carcinoma); experiment: as above
Method in brief: as §1

[6] = test system: NCI-H211 (Small Cell Lung Carcinoma); experiment: as above
Method in brief: as §1

[7] = test system: KARPAS-1106P (B-Cell Non-Hodgkin's Lymphoma); experiment: as above
Method in brief: as §1

[8] = test system: OCI-AML2 (Acute Myeloid Leukemia); experiment: Bliss excess, mean over the matrix (fraction); higher = more synergy
Method in brief: as §1

[9] = test system: SW1088 (Low Grade Glioma); experiment: as above
Method in brief: as §1

NCI-H2595 (Mesothelioma) = experiment: as above
Method in brief: as §1

[10] = test system: SW1783 (Low Grade Glioma); experiment: as above
Method in brief: as §1

[11] = test system: COR-L95 (Small Cell Lung Carcinoma); experiment: as above
Method in brief: as §1

SK-N-FI (Neuroblastoma) = experiment: as above
Method in brief: as §1

[12] = test system: LS-513 (Colorectal Carcinoma); experiment: as above
Method in brief: as §1

[13] = test system: IHH-4 (Thyroid Gland Carcinoma); experiment: as above
Method in brief: as §1

[14] = test system: KATOIII (Gastric Carcinoma); experiment: as above
Method in brief: as §1

[15] = test system: DOV13 (Ovarian Carcinoma); experiment: as above
Method in brief: as §1

[16] = test system: HT-29 (Colorectal Carcinoma); experiment: as above
Method in brief: as §1

DSH1 (Bladder Carcinoma) = experiment: as above
Method in brief: as §1

SN12C (Kidney Carcinoma) = experiment: as above
Method in brief: as §1
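For Bliss excess, mean over the matrix in this document: after 72 h of two-drug dosing.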

Compound	combination Emax [1]	combination Emax [2]	combination Emax [3]	combination Emax [4]	combination Emax [5]	combination Emax [6]	combination Emax [7]	Bliss excess [8]	Bliss excess [9]	Bliss excess (NCI-H2595 (Mesothelioma))	Bliss excess [10]	Bliss excess [11]	Bliss excess (SK-N-FI (Neuroblastoma))	Bliss excess [12]	Bliss excess [13]	Bliss excess [14]	Bliss excess [15]	Bliss excess [16]	Bliss excess (DSH1 (Bladder Carcinoma))	Bliss excess (SN12C (Kidney Carcinoma))
C=CCn1c(=O)c2cnc(Nc3ccc(N4CCN(C)CC4)cc3)nc2n1-c1cccc(C(C)(C)O)n1 [AZD1775] + CCc1c2c(nc3ccc(O)cc13)-c1cc3c(c(=O)n1C2)COC(=O)[C@]3(O)CC [SN-38] (first compound max 1 µM, partner max 0.3 µM)	1	0.715	0.967	0.464	0.771	0.989	0.924	-0.0278	-0.0641	-0.0096	-0.0817	-0.103	-0.0038	-0.0867	-0.0485	-0.0948	-0.0262	0.027	-0.0654	0.0364
C=CCn1c(=O)c2cnc(Nc3ccc(N4CCN(C)CC4)cc3)nc2n1-c1cccc(C(C)(C)O)n1 [AZD1775] + Nc1ccn([C@@H]2O[C@H](CO)[C@@H](O)C2(F)F)c(=O)n1 [Gemcitabine] (first compound max 1 µM, partner max 0.3 µM)	1	0.765	0.917	0.317	0.839	0.998	0.94	0.0415	-0.0468	-0.0765	0.0121	-0.0611	-0.0167	-0.04	0.0306	-0.0196	0.016	0.0422	-0.0833	0.0719
CN(CCO)CC[C@H](CSc1ccccc1)Nc1ccc(S(=O)(=O)NC(=O)c2ccc(N3CCC([C@@H](O)c4ccccc4-c4ccc(Cl)cc4)CC3)cc2)cc1S(=O)(=O)C(F)(F)F [AZD4320] + CC(=O)O[C@H]1C(=O)[C@@]2(C)[C@H]([C@H](OC(=O)c3ccccc3)[C@]3(O)C[C@H](OC(=O)[C@H](O)[C@@H](NC(=O)c4ccccc4)c4ccccc4)C(C)=C1C3(C)C)[C@]1(OC(C)=O)CO[C@@H]1C[C@@H]2O [Paclitaxel] (first compound max 1 µM, 7x7, partner max 3 µM)	1	0.966	0.86	0.891	0.963	1	0.97	-0.0016	0.0303	0.0192	0.0754	0.141	-0.025	-0.0136	-0.0267	0.168	0.0136	0.0034	0.163	0.153
CN(CCO)CC[C@H](CSc1ccccc1)Nc1ccc(S(=O)(=O)NC(=O)c2ccc(N3CCC([C@@H](O)c4ccccc4-c4ccc(Cl)cc4)CC3)cc2)cc1S(=O)(=O)C(F)(F)F [AZD4320] + CS(=O)(=O)CCNCc1ccc(-c2ccc3ncnc(Nc4ccc(OCc5cccc(F)c5)c(Cl)c4)c3c2)o1 [Lapatinib] (first compound max 1 µM, 7x7, partner max 10 µM)	1	0.701	0.328	0.949	0.956	1	0.401	0.0843	-0.0544	0.0034	0.0765	0.0386	0.057	0.0667	-0.0096	-0.0407	0.0488	-0.0113	0.0511	-0.0385
CN(CCO)CC[C@H](CSc1ccccc1)Nc1ccc(S(=O)(=O)NC(=O)c2ccc(N3CCC([C@@H](O)c4ccccc4-c4ccc(Cl)cc4)CC3)cc2)cc1S(=O)(=O)C(F)(F)F [AZD4320] + Nc1ccn([C@@H]2O[C@H](CO)[C@@H](O)C2(F)F)c(=O)n1 [Gemcitabine] (first compound max 1 µM, 7x7, partner max 0.3 µM)	1	0.857	0.674	0.511	0.855	1	0.943	0.0007	-0.0628	-0.0542	0.0546	0.0634	0.0077	-0.0318	0.0132	0.0213	-0.0366	0.0191	0.0381	0.0195
Cc1c2c(nn1C)CSCc1cc(n(C)n1)CSc1cc(c3ccccc3c1)OCCCc1c(C(=O)O)n(C)c3c-2c(Cl)ccc13 [AZD5991] + CC(=O)O[C@H]1C(=O)[C@@]2(C)[C@H]([C@H](OC(=O)c3ccccc3)[C@]3(O)C[C@H](OC(=O)[C@H](O)[C@@H](NC(=O)c4ccccc4)c4ccccc4)C(C)=C1C3(C)C)[C@]1(OC(C)=O)CO[C@@H]1C[C@@H]2O [Paclitaxel] (first compound max 1 µM, 7x7, partner max 3 µM)	1	0.993	0.977	0.398	0.893	1	0.951	-0.0046	-0.0192	-0.0504	-0.0242	-0.0187	-0.0177	-0.0216	-0.0341	-0.0298	-0.0492	-0.1	0.0523	0.0104
Cc1c2c(nn1C)CSCc1cc(n(C)n1)CSc1cc(c3ccccc3c1)OCCCc1c(C(=O)O)n(C)c3c-2c(Cl)ccc13 [AZD5991] + CS(=O)(=O)CCNCc1ccc(-c2ccc3ncnc(Nc4ccc(OCc5cccc(F)c5)c(Cl)c4)c3c2)o1 [Lapatinib] (first compound max 1 µM, 7x7, partner max 10 µM)	0.978	0.845	0.883	0.264	0.822	0.979	0.893	0.0415	-0.0137	-0.0398	-0.0106	-0.0199	-0.0808	0.0305	0.011	-0.0787	0.0072	-0.0216	0.0013	0.0035
Cc1c2c(nn1C)CSCc1cc(n(C)n1)CSc1cc(c3ccccc3c1)OCCCc1c(C(=O)O)n(C)c3c-2c(Cl)ccc13 [AZD5991] + Nc1ccn([C@@H]2O[C@H](CO)[C@@H](O)C2(F)F)c(=O)n1 [Gemcitabine] (first compound max 1 µM, 7x7, partner max 0.3 µM)	1	0.944	0.878	0.152	0.814	1	0.981	0.0516	-0.0666	-0.0053	-0.0199	-0.0274	0.0074	-0.102	0.0122	0.0444	-0.0605	0.0168	0.053	-0.0232
C[C@@H]1COCCN1c1cc(C2([S@](C)(=N)=O)CC2)nc(-c2ccnc3[nH]ccc23)n1 [AZD6738] + C1CC(C1)(C(=O)[O-])C(=O)[O-].N.N.[Pt+2] [Carboplatin] (first compound max 10 µM, 7x7, partner max 10 µM)	0.951	0.316	0.889	0.328	0.727	0.61	0.658	-0.0318	-0.0426	-0.0413	-0.0337	-0.106	-0.049	-0.0225	0.0159	-0.0879	-0.0236	-0.0194	-0.0559	-0.026
C[C@@H]1COCCN1c1cc(C2([S@](C)(=N)=O)CC2)nc(-c2ccnc3[nH]ccc23)n1 [AZD6738] + Nc1ccn([C@@H]2O[C@H](CO)[C@@H](O)C2(F)F)c(=O)n1 [Gemcitabine] (first compound max 10 µM, 7x7, partner max 0.3 µM)	1	0.747	0.925	0.413	0.824	0.973	0.926	0.0351	-0.0399	0.0326	-0.0109	-0.0359	0.0769	-0.0336	0.0816	0.0057	0.0205	0.0492	0.0108	0.0577
Cc1cc2ncnn2cc1Nc1ncc2c(n1)n(C1CCOCC1)c(=O)n2C [AZD7648] + COc1cc([C@@H]2c3cc4c(cc3[C@@H](O[C@@H]3O[C@@H]5CO[C@@H](C)O[C@H]5[C@H](O)[C@H]3O)[C@H]3COC(=O)[C@H]23)OCO4)cc(OC)c1O [Etoposide] (first compound max 10 µM, 7x7, partner max 10 µM)	1	0.581	0.855	0.321	0.662	0.968	0.781	0.175	0.032	0.0252	0.0614	0.0315	-0.0258	0.111	0.185	-0.0224	0.0276	0.0162	0.0627	0.0424
C[C@@H](Nc1cc(F)cc(F)c1)c1cc(C(=O)N(C)C)cc2c(=O)cc(N3CCOCC3)oc12 [AZD8186] + C1CN(CCC1(C(=O)N[C@@H](CCO)C2=CC=C(C=C2)Cl)N)C3=NC=NC4=C3C=CN4 [AZD5363] (first compound max 10 µM, 7x7, partner max 10 µM)	0.473	0.138	0.264	0.515	0.534	0.406	0.755	-0.0007	-0.0474	-0.0537	-0.0125	-0.0781	-0.0299	-0.0681	0.0233	-0.0739	0.026	-0.0172	-0.0297	-0.0471
N#Cc1cnc(Nc2cc(NC[C@H]3CNCCO3)c(C(F)(F)F)cn2)cn1 [SRA737] + Nc1ccn([C@@H]2O[C@H](CO)[C@@H](O)C2(F)F)c(=O)n1 [Gemcitabine] (first compound max 10 µM, 7x7, partner max 0.3 µM)	1	0.78	0.905	0.317	0.801	0.977	0.951		-0.0658	0.0252	0.0091	-0.0067	0.0476	-0.0189	0.0649	-0.0794	0.0821	0.0573	0.0195	0.0884
